Data: patent publication US8933031B2, “Polypeptide inhibiting angiogenesis and application thereof” (Shanghai First People's Hospital, priority 2008, dated 2015)

Legend:
[1] = test system: retinal neovascularization induced by anoxia; format: in vivo; details: intravitreal AU6 (5 μg, 10 μg) 12 days after birth, read 17 days after birth, vs model-treated group
Description: 1.1 Materials and Main Devices: Healthy, neonatal C57B1/6 mice, 7 days age, weighing about 4 g were purchased from Laboratory Animal Center of Chinese Academy of Sciences. The sex of the mice was not limited. FITC-dextran (molecular weight about 2*10^6) was purchased from SIGMA, USA.
1.2 Preparation of Model and Intervention Test: Neonatal mice of 10 nests were randomly grouped into 5 groups, which respectively were oxygen group, oxygen plus PBS group, oxygen plus 5 μg AU6 group, oxygen plus 10 μg AU6 group, and control group, with 10-11 mice for each group. Seven days after birth, except the control group, all of the other groups of mice were placed in an airproof drying cabinet together with their mother mice of the same nest. Wet pure oxygen was introduced into the drying cabinet, and the oxygen concentration in volume was maintained as 75%±5%. The oxygen concentration was measured every 3-6 hours by using oxygen meter. The control group was incubated normally in air. Twelve days after birth, 0.5 μl PBS solution containing respectively 0, 5 μg, and 10 μg AU6 were injected into the vitreous chambers of the mice in the oxygen plus PBS group and in the oxygen plus AU6 group (5 μg, and 10 μg).
1.3 FITC-dextran Retinal Angiography and Flat-mounts: Seventeen days after birth, 50 mg/ml FITC-dextran solution were perfused into the left ventricle of mice in each group. Then the eyeballs immediately were obtained, fixed in paraformaldehyde solution for 5-24 hours at 4° C. And then the retinas were isolated and flat-mounted. The morphological change of the retinal blood vessel was observed under fluorescence microscope.
1.4 Quantitative Measurement of Retinal Neovascularization: The animals in each group were sacrificed by excessive anaesthesia 17 days after birth. The eyeballs were obtained, and fixed in 10% neutral formaldehyde, and then subjected to histopathological examination. […] The numbers of the nucleus of the vascular endothelial cells which broke through the retinal inner limiting membrane were counted under light microscope. […]

[2] = test system: chick embryo chorioallantoic membrane; format: in vivo; details: 10 μg or 50 μg AU6 on filter paper, 2 days, vs PBS control group
Description: 1.2 Preparation of Model and Intervention Test: The chick fertile eggs of 1-2 days old were randomly grouped into 3 groups, which were respectively a control group, a 10 μg AU6 intervention group, and a 50 μg AU6 intervention group, with 9-15 eggs for each group. The surface of the fertile eggs was cleansing with tap water, and then the eggs were soaked in 0.2% benzalkonium bromide (bromo-geramine) solution for 5-10 minutes. The eggs were placed with the blunt end upward, and hatched in an incubator under 37° C. and 60-70% humidity. The eggs were overturned for at least two times per day, and were hatched for 5 days with 24 hours as one day. Under sterile condition, a small hole of about 1-2cm^2 was created at the blunt end (air chamber end) with a nipper. […] Whatman filter papers with a diameter of 5mm were used as a sample carrier, each of which adsorbed 5 μl of PBS solution containing 0 μg, 10 μg or 50 μg of AU6. After air drying, the papers were placed into the center of the chorioallantoic membrane. […]
1.3 Counting the Number of Micrangiums in the Chorioallantoic Membrane: the adhesive tape was removed, and the micrangiums newly generated on the chorioallantoic membrane were observed. The number of micrangiums (with diameter no greater than 10 μm) within 5 mm around the filter paper for each group was counted under stereomicroscope. […]

[3] = test system: corneal angiogenesis induced by VEGF; format: in vivo
Source text: 1.2 Experimental Animal and Material: Healthy, male C57B1/6 mice of 5-6 weeks old weighing about 20 g were purchased from Laboratory Animal Center of Chinese Academy of Sciences. Sucrose octasulfate-aluminum complex was purchased from Sigma-Aldrich, USA. PolyHEMA (poly(2-hydroxyethylmethacylate)) was purchased from Aldrich, USA. And human recombinant VEGF165 was purchased from SIGMA, USA.
1.2 Preparation of Model and Intervention Test: 12% PolyHEMA in an ethanol solution was mixed with an equal volume of normal saline solution containing sucrose octasulfate-aluminum complex powder, thus forming blank slow-release particles with a volume of 0.35 mm*0.35 mm*0.20 mm. 160 ng of VEGF and different amounts (0 μg, 1.0 μg, 2.0 μg) of the small peptides were added into said particles. The resultant products were stored at −20° C., ready for use. The above operations were done under a sterile condition. Thirty C57B1/6 mice (30 eyes) were randomly grouped into a control group (VEGF group), VEGF+1.0 μg AU6 group, and VEGF+2.0 μg AU6 group, with 10 eyes for each group. Under a sterile condition, 23G syringe needle was used to perform blunt separation between the layers of the corneal stroma in the experimental eyes, so as to form a pouch of 0.5 mm*0.5 mm. The particles containing 160 ng VEGF and different amounts of small peptides were implanted into the pouches in the ocular cornea in the mice of each group, and were made to have a distance of 0.6-0.8 mm from limbus. After operation, 0.5% aureomycin oculentum was applied to the eyes to prevent infection and reduce irritation. Photos were obtained 7 days after operation to observe the growth of newly generated blood vessel in the cornea, and a histopathological examination was performed concurrently.
1.3 Quantitative Measurement of Corneal Neovascularization: the length of the new blood vessels grown from limbus was measured 7 days after operation. The area of the new blood vessel was calculated based on the longest blood vessel which had less continuous bending and which grew toward the slow release particles. Formula is as follows: Area (mm^2)=[…]*π*VL (mm)*CN*0.4 (mm), wherein VL is the length of the longest new blood vessel grown from limbus to the cornea (maximal vessel length), and CN represents the clock hours of corneal neovascularization (the cornea is dividing into clock hours).
1.4 Qualitative Observation of Corneal Neovascularization: Each group of animals was sacrificed by excessive anaesthesia 7 days after operation. The eyeballs were obtained under a sterile condition, and fixed in 10% neutral formaldehyde, and then subjected to histopathological examination. The samples were embedded within paraffin and cut into 3 μm sections, HE stained, and observed under light microscope.
1.5 Statistical Analysis: The experimental data were represented as x±s. The length of the longest new blood vessel in cornea, clock hours and area for each group were compared by one-way ANOVA. P<0.05 indicates statistical significance.

[4] = Water solubility of synthesized polypeptide; format: physicochemical; details: white powder
[5] = 160 ng VEGF + 1.0 or 2.0 μg AU6 slow-release particles, 7 days after operation, vs control group
[6] = 7 days after operation, AU6 intervention group

YRGKKA ((1)..(6) Peptide AU6 for inhibiting angiogenesis)
neovascular clusters (FITC-dextran retinal flat-mounts) [1]: reduced | non-perfusion area (FITC-dextran retinal flat-mounts) [1]: narrowed | nucleus of vascular endothelial cells which broke through the inner limiting membrane [1]: obviously less | numbers of micrangiums within 5 mm around the filter paper [2]: significantly less | clock hours of corneal neovascularization [3, 5]: significant decrease | longest blood vessel length of the new blood vessel [3, 5]: significant decrease | area of blood vessel ([3]; 160 ng VEGF + 1.0 or 2.0 μg AU6 slow-release particles, 7 days after operation, vs control group, calculated from VL and CN): significant decrease | blood capillary lumens in corneal stroma (HE stained sections) [3, 6]: very few | oedema in the corneal tissue (HE stained sections) [3, 6]: no obvious oedema | toxicity to each layer of corneal tissues ([3]; mouse, in vivo): not observed | water solubility [4]: good
